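48-hour exposure; five concentrations; linearly interpolated endpoints. TGI is the concentration that stops growth completely.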
How the values were obtained:
Experiment in all cases: DTP human tumour cell line panel, 48 h
CAKI-1 renal = tested on: CAKI-1 renal
MCF7 breast = tested on: MCF7 breast
OVCAR-4 ovarian = tested on: OVCAR-4 ovarian
SK-OV-3 ovarian = tested on: SK-OV-3 ovarian
A549 NSCLC = tested on: A549 NSCLC
NCI/ADR-RES ovarian = tested on: NCI/ADR-RES ovarian
BT-549 breast = tested on: BT-549 breast
786-0 renal = tested on: 786-0 renal
SNB-19 CNS = tested on: SNB-19 CNS
TK-10 renal = tested on: TK-10 renal
HOP-92 NSCLC = tested on: HOP-92 NSCLC

Nc1nc2c(C(=O)O)c3ccc([N+](=O)[O-])cc3c(=O)n2c2ccccc12
TGI (CAKI-1 renal): > 100 µM | TGI (MCF7 breast): 49.1 µM | TGI (OVCAR-4 ovarian): > 100 µM | TGI (SK-OV-3 ovarian): 74.1 µM | TGI (A549 NSCLC): > 100 µM | TGI (NCI/ADR-RES ovarian): 52.4 µM | TGI (BT-549 breast): 95.9 µM | TGI (786-0 renal): 48.8 µM | TGI (SNB-19 CNS): 89.6 µM

CC1(C)CC(=O)c2c(nc3c4c([nH]c(-c5ccc(Br)cc5)c24)CC(C)(C)C3)C1
TGI (CAKI-1 renal): > 100 µM | TGI (MCF7 breast): > 100 µM | TGI (OVCAR-4 ovarian): > 100 µM | TGI (TK-10 renal): > 100 µM | TGI (HOP-92 NSCLC): > 100 µM | TGI (SK-OV-3 ovarian): > 100 µM | TGI (A549 NSCLC): > 100 µM | TGI (NCI/ADR-RES ovarian): > 100 µM | TGI (BT-549 breast): > 100 µM | TGI (786-0 renal): 91 µM | TGI (SNB-19 CNS): > 100 µM

Nc1ccc(Nc2cc(=O)[nH]c(=O)[nH]2)cc1Cl
TGI (CAKI-1 renal): > 100 µM | TGI (MCF7 breast): > 100 µM | TGI (OVCAR-4 ovarian): > 100 µM | TGI (TK-10 renal): > 100 µM | TGI (HOP-92 NSCLC): > 100 µM | TGI (SK-OV-3 ovarian): > 100 µM | TGI (A549 NSCLC): > 100 µM | TGI (NCI/ADR-RES ovarian): > 100 µM | TGI (BT-549 breast): > 100 µM | TGI (786-0 renal): > 100 µM | TGI (SNB-19 CNS): > 100 µM

CN(C)CCc1c2c(nc3ccccc13)C(=O)c1cccnc1C2=O
TGI (CAKI-1 renal): 4.62 µM | TGI (MCF7 breast): 1.59 µM | TGI (OVCAR-4 ovarian): 2.79 µM | TGI (TK-10 renal): 2.94 µM | TGI (HOP-92 NSCLC): 8.76 µM | TGI (SK-OV-3 ovarian): 2.52 µM | TGI (A549 NSCLC): 3.2 µM | TGI (NCI/ADR-RES ovarian): 1.03 µM | TGI (BT-549 breast): 1.71 µM | TGI (786-0 renal): 0.759 µM | TGI (SNB-19 CNS): 3.88 µM

O=[N+]([O-])c1ccc(C(O)(C#CCN2CCCC2)c2ccccc2)cc1 (stereo not drawn)
TGI (MCF7 breast): > 100 µM | TGI (OVCAR-4 ovarian): > 100 µM | TGI (TK-10 renal): > 100 µM | TGI (HOP-92 NSCLC): 51.7 µM | TGI (SK-OV-3 ovarian): > 100 µM | TGI (A549 NSCLC): > 100 µM | TGI (NCI/ADR-RES ovarian): > 100 µM | TGI (BT-549 breast): > 100 µM | TGI (786-0 renal): > 100 µM | TGI (SNB-19 CNS): > 100 µM

O=C1N[C@@H]2C(=C[C@H](O)[C@@H](O)[C@H]2O)c2cc3c(c(O)c21)OCO3
TGI (CAKI-1 renal): 0.0735 µM | TGI (OVCAR-4 ovarian): 0.537 µM | TGI (HOP-92 NSCLC): 0.272 µM | TGI (SK-OV-3 ovarian): 0.246 µM | TGI (A549 NSCLC): 0.306 µM | TGI (NCI/ADR-RES ovarian): 0.0972 µM | TGI (SNB-19 CNS): 0.0665 µM

CC1CC(C#N)=C2NCCN2C1=O (stereo not drawn)
TGI (CAKI-1 renal): > 100 µM | TGI (MCF7 breast): 50.7 µM | TGI (OVCAR-4 ovarian): > 100 µM | TGI (TK-10 renal): > 100 µM | TGI (SK-OV-3 ovarian): > 100 µM | TGI (A549 NSCLC): > 100 µM | TGI (NCI/ADR-RES ovarian): > 100 µM | TGI (BT-549 breast): > 100 µM | TGI (786-0 renal): > 100 µM | TGI (SNB-19 CNS): > 100 µM

CCN(CCN(CC)C(=O)Nc1ccccc1)C(=O)Nc1ccccc1
TGI (MCF7 breast): > 100 µM | TGI (TK-10 renal): > 100 µM | TGI (HOP-92 NSCLC): > 100 µM | TGI (SK-OV-3 ovarian): > 100 µM | TGI (A549 NSCLC): > 100 µM | TGI (NCI/ADR-RES ovarian): > 100 µM | TGI (BT-549 breast): > 100 µM | TGI (786-0 renal): > 100 µM | TGI (SNB-19 CNS): > 100 µM

CN=C(Nc1cccc(C(F)(F)F)c1)SCc1ccc(N=C=S)cc1
TGI (CAKI-1 renal): 30.4 µM | TGI (OVCAR-4 ovarian): 26.8 µM | TGI (TK-10 renal): 23.5 µM | TGI (HOP-92 NSCLC): 30.5 µM | TGI (SK-OV-3 ovarian): 34.5 µM | TGI (A549 NSCLC): 37.5 µM | TGI (NCI/ADR-RES ovarian): 61.3 µM | TGI (786-0 renal): 31 µM | TGI (SNB-19 CNS): 28.1 µM

CO/N=C1/c2sccc2[C@H](NC(=O)C(Cc2ccccc2)NC(=O)OC(C)(C)C)[C@@H]1O (stereo partly drawn)
TGI (CAKI-1 renal): > 100 µM | TGI (MCF7 breast): > 100 µM | TGI (OVCAR-4 ovarian): > 100 µM | TGI (TK-10 renal): > 100 µM | TGI (HOP-92 NSCLC): > 100 µM | TGI (SK-OV-3 ovarian): > 100 µM | TGI (A549 NSCLC): > 100 µM | TGI (NCI/ADR-RES ovarian): > 100 µM | TGI (BT-549 breast): > 100 µM | TGI (SNB-19 CNS): > 100 µM

COc1cc(Oc2nc3ccc(C(F)(F)F)cc3nc2-c2ccccc2)cc(OC)c1OC
TGI (CAKI-1 renal): 17.3 µM | TGI (MCF7 breast): > 100 µM | TGI (OVCAR-4 ovarian): 26.3 µM | TGI (TK-10 renal): 69.2 µM | TGI (HOP-92 NSCLC): 45.7 µM | TGI (SK-OV-3 ovarian): 33.4 µM | TGI (A549 NSCLC): 49.7 µM | TGI (NCI/ADR-RES ovarian): > 100 µM | TGI (BT-549 breast): 56 µM | TGI (786-0 renal): 12.7 µM

O=NN(CCF)C(=O)NC1CCSCC1
TGI (CAKI-1 renal): > 100 µM | TGI (MCF7 breast): > 100 µM | TGI (OVCAR-4 ovarian): > 100 µM | TGI (HOP-92 NSCLC): > 100 µM | TGI (SK-OV-3 ovarian): > 100 µM | TGI (A549 NSCLC): > 100 µM | TGI (NCI/ADR-RES ovarian): > 100 µM | TGI (SNB-19 CNS): > 100 µM

Nc1ncnc2c1ncn2[C@@H]1O[C@H](COC(c2ccccc2)(c2ccccc2)c2ccccc2)[C@@H](OC(=S)Oc2ccccc2)[C@@H]1F
TGI (CAKI-1 renal): 41.6 µM | TGI (MCF7 breast): 14.9 µM | TGI (OVCAR-4 ovarian): 57.9 µM | TGI (TK-10 renal): 32.3 µM | TGI (HOP-92 NSCLC): 28.6 µM | TGI (SK-OV-3 ovarian): 30.8 µM | TGI (A549 NSCLC): 43.7 µM | TGI (NCI/ADR-RES ovarian): 18.5 µM | TGI (BT-549 breast): 19.9 µM | TGI (786-0 renal): 15.9 µM | TGI (SNB-19 CNS): 27.7 µM

C=C(C)[C@@H]1CC[C@]2(C(=O)OC)CC[C@]3(C)[C@H](CC[C@@H]4[C@@]5(C)CC[C@H](O)C(C)(C)[C@@H]5CC[C@]43C)[C@@H]12
TGI (CAKI-1 renal): 39.6 µM | TGI (MCF7 breast): 41.6 µM | TGI (HOP-92 NSCLC): 41.3 µM | TGI (A549 NSCLC): 37.7 µM | TGI (NCI/ADR-RES ovarian): 51.7 µM | TGI (786-0 renal): 45.9 µM | TGI (SNB-19 CNS): 39.5 µM

O=C(O)c1ccccc1N=Nc1c(O)c(S(=O)(=O)O)cc2cc(S(=O)(=O)O)ccc12
TGI (CAKI-1 renal): > 100 µM | TGI (MCF7 breast): > 100 µM | TGI (TK-10 renal): > 100 µM | TGI (HOP-92 NSCLC): > 100 µM | TGI (SK-OV-3 ovarian): > 100 µM | TGI (A549 NSCLC): > 100 µM | TGI (786-0 renal): > 100 µM | TGI (SNB-19 CNS): > 100 µM

O=c1[nH]c2nc3ccccc3c(=O)n2/c1=C/c1ccco1
TGI (CAKI-1 renal): > 100 µM | TGI (MCF7 breast): > 100 µM | TGI (OVCAR-4 ovarian): > 100 µM | TGI (TK-10 renal): > 100 µM | TGI (HOP-92 NSCLC): > 100 µM | TGI (SK-OV-3 ovarian): > 100 µM | TGI (A549 NSCLC): > 100 µM | TGI (NCI/ADR-RES ovarian): > 100 µM | TGI (BT-549 breast): > 100 µM | TGI (786-0 renal): > 100 µM | TGI (SNB-19 CNS): > 100 µM

CC[C@@]1(O)C(=O)OCc2c1cc1n(c2=O)Cc2c-1nc1ccccc1c2/C=N\NC(=O)C(N)CCSC (stereo partly drawn)
TGI (MCF7 breast): 1.84 µM | TGI (OVCAR-4 ovarian): 3.24 µM | TGI (TK-10 renal): > 100 µM | TGI (HOP-92 NSCLC): 2.98 µM | TGI (SK-OV-3 ovarian): 7.73 µM | TGI (A549 NSCLC): 3.19 µM | TGI (NCI/ADR-RES ovarian): 23.9 µM | TGI (786-0 renal): 1.92 µM | TGI (SNB-19 CNS): 0.722 µM

Cn1c(=O)n2n(c1=O)C(C)(C13CC4CC(CC(C4)C1)C3)C13CC4CC(CC1C4)CC23 (stereo not drawn)
TGI (CAKI-1 renal): > 100 µM | TGI (MCF7 breast): > 100 µM | TGI (TK-10 renal): > 100 µM | TGI (HOP-92 NSCLC): > 100 µM | TGI (SK-OV-3 ovarian): > 100 µM | TGI (A549 NSCLC): > 100 µM | TGI (NCI/ADR-RES ovarian): > 100 µM | TGI (BT-549 breast): > 100 µM | TGI (SNB-19 CNS): > 100 µM

O=C1Cc2c([nH]c3ccc(C(=O)O)cc23)-c2ccccc2N1
TGI (CAKI-1 renal): > 100 µM | TGI (MCF7 breast): > 100 µM | TGI (OVCAR-4 ovarian): > 100 µM | TGI (TK-10 renal): > 100 µM | TGI (HOP-92 NSCLC): > 100 µM | TGI (SK-OV-3 ovarian): > 100 µM | TGI (A549 NSCLC): > 100 µM | TGI (NCI/ADR-RES ovarian): > 100 µM | TGI (BT-549 breast): > 100 µM | TGI (786-0 renal): > 100 µM | TGI (SNB-19 CNS): > 100 µM

O=C(c1ccco1)N(C(=O)N1CCN(c2ccccc2)CC1)S(=O)(=O)c1ccccc1
TGI (CAKI-1 renal): 57.8 µM | TGI (MCF7 breast): 84 µM | TGI (OVCAR-4 ovarian): > 100 µM | TGI (TK-10 renal): > 100 µM | TGI (HOP-92 NSCLC): 73.6 µM | TGI (SK-OV-3 ovarian): > 100 µM | TGI (A549 NSCLC): > 100 µM | TGI (NCI/ADR-RES ovarian): 55.1 µM | TGI (BT-549 breast): 87.6 µM | TGI (786-0 renal): > 100 µM | TGI (SNB-19 CNS): 85.2 µM

CC(=O)OCC1OC(OCCCOP(=S)(OCCC#N)OCC2OC(n3ccc(N)nc3=O)C(OC(=O)c3ccccc3)C2OC(=O)c2ccccc2)C(OC(C)=O)C(OC(C)=O)C1OC(C)=O (stereo not drawn)
TGI (CAKI-1 renal): > 100 µM | TGI (MCF7 breast): > 100 µM | TGI (OVCAR-4 ovarian): > 100 µM | TGI (TK-10 renal): > 100 µM | TGI (HOP-92 NSCLC): > 100 µM | TGI (SK-OV-3 ovarian): > 100 µM | TGI (A549 NSCLC): > 100 µM | TGI (NCI/ADR-RES ovarian): > 100 µM | TGI (BT-549 breast): > 100 µM | TGI (786-0 renal): > 100 µM | TGI (SNB-19 CNS): > 100 µM

From PubChem BioAssay (NCI)
